From patent publication US20240132484A1, “BROAD SPECTRUM ANTIVIRAL COMPOUNDS TARGETING THE SKI COMPLEX” (priority 2020, published 2024)
“And” between values parts separate entries of the source, which are not always exact repeats. Equal values may be shown once. “Also recorded” adds a separate entry of the source. Read-outs that look alike come from different tables or passages of the source.

Columns and labels:
cells (nuclei count) = conditions: for Toxicity Data, Average, Mean: average of Exp 1-3 (SMW475, SMW477, SMW478)
SARS2 = type: cell-based, SARS-CoV-2; conditions: for Percentage Infection Relative to Appropriate DMSO Control with Avg Background Subtraction: Greiner Celigo plates; for Infection Data, Average, Mean: average of Exp 1-3 (SMW475, SMW477, SMW478)
WDR61 = WDR61 (Homo sapiens, UniProt Q9GZS3); assay: Surface Plasmon Resonance with pure WDR61 protein
SARS-CoV = type: cell-based; conditions: 24 h
MERS-CoV = assay: microbe, parasite or virus in culture; type: cell-based; conditions: Middle East respiratory syndrome-related coronavirus, Huh-7, 24 h, read-out: IC50 against MERS-CoV
IAV RNA = assay: Multi-segment RT-PCR (M-RTPCR) of IAV segments in A549 cells; type: cell-based, influenza A virus
[1] = system: SARS-CoV-2 mRNA (N, RdRp); type: cell-based; conditions: two gene targets (N, RdRp)
IAV NS1 mRNA = type: cell-based, influenza A virus
Influenza virus = assay: organism not typed; type: cell-based, influenza A virus; conditions: for time of addition: inhibition of IAV when drug added 2 h after infection: +2 h versus -2 h and 0 h; for IC50: A549, 24 h, read-out: IC50 against IAV; for antiviral activity against IAV infection: screening, A549 cells
IAV NS1 protein = type: cell-based, influenza A virus
SARS-CoV-2 = type: cell-based
[2] = system: Ebola virus Makona strain (EBOV); assay: microbe, parasite or virus in culture; type: cell-based; conditions: Zaire ebolavirus, Huh-7, 48 h, read-out: IC50 against EBOV
Huh7 cells = conditions: antiviral concentrations, 24 h
A549 cells = conditions: antiviral concentrations, 24 h
[3] = system: Marburg virus Angola strain (MARV); assay: organism not typed; type: cell-based; conditions: Huh-7, 48 h, read-out: IC50 against MARV

## CN(C)CCN(Cc1cocn1)Cc1cccs1 [SILCS35]
Cells (nuclei count); 1 μM, toxicity data, 100=DMSO control
  Relative cell count to DMSO controls, Average 1 μM: 105.31
Cells (nuclei count); 5 μM, toxicity data, 100=DMSO control
  Relative cell count to DMSO controls, Average 5 μM: 100.64
Cells (nuclei count); 10 μM, toxicity data, 100=DMSO control
  Relative cell count to DMSO controls, Average 10 μM: 89.77
Cells (nuclei count); 25 μM, toxicity data, 100=DMSO control
  Relative cell count to DMSO controls, Average 25 μM: 93.31
Cells (nuclei count); 50 μM, toxicity data, 100=DMSO control
  Relative cell count to DMSO controls, Average 50 μM: 60.5
Cells (nuclei count); n 9, 1 uM
  Toxicity Data, Average, Mean: 105.31%
Cells (nuclei count); n 9, 5 uM
  Toxicity Data, Average, Mean: 100.64%
Cells (nuclei count); n 9, 10 uM
  Toxicity Data, Average, Mean: 89.77%
Cells (nuclei count); n 9, 25 uM
  Toxicity Data, Average, Mean: 93.31%
Cells (nuclei count); n 9, 50 uM
  Toxicity Data, Average, Mean: 60.50%
Cells (nuclei count); average value over the 5 tested concentrations (1 to 50 uM)
  Relative cell count to DMSO controls, Average (for correlation analysis): 89.91
SARS2; Exp 1 (SMW475), 1 uM
  Percentage Infection Relative to Appropriate DMSO Control with Avg Background Subtraction: 90.30% and 94.24% and 95.59%
SARS2; Exp 1 (SMW475), 5 uM
  Percentage Infection Relative to Appropriate DMSO Control with Avg Background Subtraction: 93.18% and 101.74% and 91.54%
SARS2; Exp 1 (SMW475), 10 uM
  Percentage Infection Relative to Appropriate DMSO Control with Avg Background Subtraction: 105.47% and 116.87% and 111.43%
SARS2; Exp 1 (SMW475), 25 uM
  Percentage Infection Relative to Appropriate DMSO Control with Avg Background Subtraction: 79.86% and 56.98% and 87.77%
SARS2; Exp 1 (SMW475), 50 uM
  Percentage Infection Relative to Appropriate DMSO Control with Avg Background Subtraction: 83.26% and 106.28% and 78.51%
SARS2; Exp 2 (SMW477), 1 uM
  Percentage Infection Relative to Appropriate DMSO Control with Avg Background Subtraction: 131.21% and 119.10% and 117.97%
SARS2; Exp 2 (SMW477), 5 uM
  Percentage Infection Relative to Appropriate DMSO Control with Avg Background Subtraction: 138.25% and 128.36% and 147.80%
SARS2; Exp 2 (SMW477), 10 uM
  Percentage Infection Relative to Appropriate DMSO Control with Avg Background Subtraction: 155.83% and 113.76% and 119.79%
SARS2; Exp 2 (SMW477), 25 uM
  Percentage Infection Relative to Appropriate DMSO Control with Avg Background Subtraction: 125.42% and 107.58% and 104.40%
SARS2; Exp 2 (SMW477), 50 uM
  Percentage Infection Relative to Appropriate DMSO Control with Avg Background Subtraction: 109.53% and 98.67% and 105.03%
SARS2; Exp 3 (SMW478), 1 uM
  Percentage Infection Relative to Appropriate DMSO Control with Avg Background Subtraction: 105.76% and 80.57% and 90.16%
SARS2; Exp 3 (SMW478), 5 uM
  Percentage Infection Relative to Appropriate DMSO Control with Avg Background Subtraction: 134.19% and 78.79% and 94.59%
SARS2; Exp 3 (SMW478), 10 uM
  Percentage Infection Relative to Appropriate DMSO Control with Avg Background Subtraction: 151.59% and 95.94% and 77.50%
SARS2; Exp 3 (SMW478), 25 uM
  Percentage Infection Relative to Appropriate DMSO Control with Avg Background Subtraction: 126.08% and 121.76% and 139.01%
SARS2; Exp 3 (SMW478), 50 uM
  Percentage Infection Relative to Appropriate DMSO Control with Avg Background Subtraction: 140.10% and 158.92% and 157.74%
SARS2; SARS2, 1 μM
  Percentage Inhibition Average 1 μM: −2.77%
SARS2; SARS2, 1 μM, 100=DMSO control
  Screening data (Relative infection to DMSO controls) Average 1 μM: 102.77
SARS2; SARS2, 5 μM
  Percentage Inhibition Average 5 μM: −12.05%
SARS2; SARS2, 5 μM, 100=DMSO control
  Screening data (Relative infection to DMSO controls) Average 5 μM: 112.05
SARS2; SARS2, 10 μM
  Percentage Inhibition Average 10 μM: −16.46%
SARS2; SARS2, 10 μM, 100=DMSO control
  Screening data (Relative infection to DMSO controls) Average 10 μM: 116.46
SARS2; SARS2, 25 μM
  Percentage Inhibition Average 25 μM: −5.43%
SARS2; SARS2, 25 μM, 100=DMSO control
  Screening data (Relative infection to DMSO controls) Average 25 μM: 105.43
SARS2; SARS2, 50 μM
  Percentage Inhibition Average 50 μM: −15.34%
SARS2; SARS2, 50 μM, 100=DMSO control
  Screening data (Relative infection to DMSO controls) Average 50 μM: 115.34
SARS2; SARS2, average over 1 to 50 uM, 100=DMSO control
  Average (relative infection to DMSO over the 5 tested concentrations): 110.41
SARS2; n 9, 1 uM
  Infection Data, Average, Mean: 102.77%
SARS2; n 9, 5 uM
  Infection Data, Average, Mean: 112.05%
SARS2; n 9, 10 uM
  Infection Data, Average, Mean: 116.46%
SARS2; n 9, 25 uM
  Infection Data, Average, Mean: 105.43%
SARS2; n 9, 50 uM
  Infection Data, Average, Mean: 115.34%
WDR61
  direct binding to WDR61 by SPR: binding directly to WDR61

## COc1ccc(CNCCc2ccccc2C)c(OCC(O)CN2CCN(C)CC2)c1 (stereo not shown) [UMB18-2]
SARS-CoV; 10 μM
  inhibition of SARS-CoV: inhibition, but to a lesser extent
SARS-CoV; 50 μM
  reduction in virus production: 1 log
MERS-CoV
  IC50: ~5 µM
IAV RNA
  IAV RNA amplified by M-RTPCR: total loss of IAV RNA
[1]
  SARS-CoV-2 mRNA production: capable of inhibiting SARS-CoV-2 mRNA production
IAV NS1 mRNA
  IAV NS1 mRNA: marked reduction in mRNA
Influenza virus
  time of addition: inhibition of IAV when drug added 2 h after infection: marked reduction in the level of inhibition
  IC50: ~5 µM
  antiviral activity against IAV infection: capable of inhibiting IAV infection
IAV NS1 protein
  NS1 protein by western blot: lack of NS1 protein
SARS-CoV-2
  inhibition of SARS-CoV-2 virus production by TCID50: capable of inhibiting virus production; also recorded: less so

## COc1ccc(CNCCc2ccccc2F)c(OCC(O)CN2CCN(C)CC2)c1 (stereo not shown) [UMB18, 1-[2-({[2-(2-fluorophenyl)ethyl]amino}methyl)-5-methoxyphenoxy]-3-(4-methyl-1-piperazinyl)-2-propanol]
MERS-CoV
  IC50: ~5 µM
IAV NS1 mRNA
  IAV NS1 mRNA: marked reduction in mRNA
[2]
  IC50: ~5 µM
Huh7 cells
  toxicity by CellTiter-Glo assay: minimal toxicity
A549 cells
  toxicity by CellTiter-Glo assay: minimal toxicity
[3]
  IC50: ~16 µM
Influenza virus; 10 μM treatment, average of replicates
  10 μM treatment, Average: 11250 and 1250 and 2000 and 18000
Influenza virus; 10 μM treatment, replicate 2
  10 μM treatment: 12000 and 1000 and 35000
Influenza virus; 10 μM treatment, replicate 3
  10 μM treatment: 1000 and 2000
Influenza virus; 10 μM treatment, replicate 4
  10 μM treatment: 5000 and 1000
Influenza virus; 50 μM compound, average of replicates
  50 μM treatment Average: 1000 and 333.3 and 0 (2×)
Influenza virus; 50 μM compound, replicate 1, DMSO (0.5%) control run per batch
  50 μM treatment: 0
Influenza virus; 50 μM compound, replicate 2
  50 μM treatment: 3000 and 0 (2×)
Influenza virus; 50 μM compound, replicate 3
  50 μM treatment (third value column): 0 and 1000
Influenza virus; 50 μM compound, replicate 4
  50 μM treatment (fourth value column): 1000
Influenza virus
  time of addition: inhibition of IAV when drug added 2 h after infection: marked reduction in the level of inhibition
  IC50: ~5 µM
  antiviral activity against IAV infection: showed antiviral activity against influenza
IAV NS1 protein
  NS1 protein by western blot: lack of NS1 protein
